Assay results from PubChem BioAssay AID1918994 (Molecular Pharmacology Branch, DTP, NCI, 2023).

Test system: 292921-168-R-J2-PDC complex spheroid growth
Experiment: Anticancer human tumor 292921-168-R-J2-PDC patient-derived pancreatic carcinoma cell line growth inhibition [AhR]
Conditions: for IC50: curve of first compound; for viability, T/C: stronger effect = lower value
In short: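 Spheroids combined tumor cells with HUVEC endothelial cells and human MSCs as stroma. AhR antagonists were paired with standard or investigational drugs, each dosed in half-log steps down from near clinical Cmax, or from 10 microM where Cmax was unknown.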

[1] = second compound 0.1 µM, first compound 0.0316 µM
[2] = second compound 0.1 µM, first compound 0.1 µM
[3] = second compound 0.316 µM, first compound 0.0316 µM
[4] = second compound 0.316 µM, first compound 0.1 µM
[5] = second compound 1 µM, first compound 0.0316 µM
[6] = second compound 1 µM, first compound 0.1 µM
[7] = second compound 3.16 µM, first compound 0.0316 µM
[8] = second compound 3.16 µM, first compound 0.1 µM
[9] = second compound 10 µM, first compound 0.0316 µM
[10] = second compound 10 µM, first compound 0.1 µM
[11] = second compound 0.1 µM, first compound 0.316 µM
[12] = second compound 0.1 µM, first compound 1 µM
[13] = second compound 0.1 µM, first compound 3.16 µM
[14] = second compound 0.1 µM, first compound 10 µM
[15] = second compound 0.316 µM, first compound 0.316 µM
[16] = second compound 0.316 µM, first compound 1 µM
[17] = second compound 0.316 µM, first compound 3.16 µM
[18] = second compound 0.316 µM, first compound 10 µM
[19] = second compound 1 µM, first compound 0.316 µM
[20] = second compound 1 µM, first compound 1 µM
[21] = second compound 1 µM, first compound 3.16 µM
[22] = second compound 1 µM, first compound 10 µM
[23] = second compound 3.16 µM, first compound 0.316 µM
[24] = second compound 3.16 µM, first compound 1 µM
[25] = second compound 3.16 µM, first compound 3.16 µM
[26] = second compound 3.16 µM, first compound 10 µM
[27] = second compound 10 µM, first compound 0.316 µM
[28] = second compound 10 µM, first compound 1 µM
[29] = second compound 10 µM, first compound 3.16 µM
[30] = second compound 10 µM, first compound 10 µM
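Also: spheroids exposed to compounds for seven days after three days of growth.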

IC50 (second compound 0.1 µM)	IC50 (second compound 0.316 µM)	IC50 (second compound 1 µM)	IC50 (second compound 3.16 µM)	IC50 (second compound 10 µM)	SMILES	viability, T/C [1]	viability, T/C [2]	viability, T/C [3]	viability, T/C [4]	viability, T/C [5]	viability, T/C [6]	viability, T/C [7]	viability, T/C [8]	viability, T/C [9]	viability, T/C [10]	viability, T/C [11]	viability, T/C [12]	viability, T/C [13]	viability, T/C [14]	viability, T/C [15]	other results
> 100 nM	> 100 nM	> 100 nM	> 100 nM	> 100 nM	Cn1ncnc1C1c2n[nH]c(=O)c3cc(F)cc(c23)NC1c1ccc(F)cc1 (stereo not given) + Cc1ccccc1N=Nc1ccc(NC(=O)c2ccnn2C)c(C)c1	87.8%	82.6%	73.8%	86.2%	87.8%	74.1%	72.5%	59.6%	53.3%	52.8%	–	–	–	–	–	viability, T/C (second compound 0.1 µM, first compound 0.000316 µM): 96.1%; viability, T/C (second compound 0.1 µM, first compound 0.001 µM): 83%; viability, T/C (second compound 0.1 µM, first compound 0.00316 µM): 83.2%; viability, T/C (second compound 0.1 µM, first compound 0.01 µM): 85.7%; viability, T/C (second compound 0.316 µM, first compound 0.000316 µM): 90.9%; viability, T/C (second compound 0.316 µM, first compound 0.001 µM): 76.6%; viability, T/C (second compound 0.316 µM, first compound 0.00316 µM): 86.4%; viability, T/C (second compound 0.316 µM, first compound 0.01 µM): 74.8%; viability, T/C (second compound 1 µM, first compound 0.000316 µM): 78.6%; viability, T/C (second compound 1 µM, first compound 0.001 µM): 81%; viability, T/C (second compound 1 µM, first compound 0.00316 µM): 80.3%; viability, T/C (second compound 1 µM, first compound 0.01 µM): 81.3%; viability, T/C (second compound 3.16 µM, first compound 0.000316 µM): 80.9%; viability, T/C (second compound 3.16 µM, first compound 0.001 µM): 76.2%; viability, T/C (second compound 3.16 µM, first compound 0.00316 µM): 76.3%; viability, T/C (second compound 3.16 µM, first compound 0.01 µM): 75.1%; viability, T/C (second compound 10 µM, first compound 0.000316 µM): 64%; viability, T/C (second compound 10 µM, first compound 0.001 µM): 68.5%; viability, T/C (second compound 10 µM, first compound 0.00316 µM): 51.8%; viability, T/C (second compound 10 µM, first compound 0.01 µM): 61.7%
189 nM	168 nM	161 nM	138 nM	115 nM	NS(=O)(=O)OCC1CC(n2ccc3c(NC4CCc5ccccc54)ncnc32)CC1O (stereo not given) + Cc1ccccc1N=Nc1ccc(NC(=O)c2ccnn2C)c(C)c1	122%	88.3%	128%	77.9%	111%	73.6%	100%	64%	88.9%	55.2%	19.3%	4.4%	3.09%	2.81%	15.7%	viability, T/C [16]: 4.5%; viability, T/C [17]: 4.78%; viability, T/C [18]: 3.59%; viability, T/C [19]: 16.2%; viability, T/C [20]: 6.04%; viability, T/C [21]: 3.96%; viability, T/C [22]: 5.05%; viability, T/C [23]: 13.8%; viability, T/C [24]: 4.58%; viability, T/C [25]: 8.31%; viability, T/C [26]: 2.91%; viability, T/C [27]: 13.7%; viability, T/C [28]: 5.55%; viability, T/C [29]: 3.67%; viability, T/C [30]: 2.58%
579 nM	697 nM	520 nM	285 nM	< 31.6 nM	O=C(C=Cc1cccc(S(=O)(=O)Nc2ccccc2)c1)NO + Cc1ccccc1N=Nc1ccc(NC(=O)c2ccnn2C)c(C)c1	69%	64%	74.9%	68.2%	68.8%	59.1%	65.8%	49%	44.2%	41.6%	52%	39.7%	38.2%	3.35%	55.4%	viability, T/C [16]: 43.2%; viability, T/C [17]: 36.9%; viability, T/C [18]: 6.05%; viability, T/C [19]: 54.8%; viability, T/C [20]: 38.8%; viability, T/C [21]: 36.1%; viability, T/C [22]: 3.74%; viability, T/C [23]: 49.1%; viability, T/C [24]: 34.9%; viability, T/C [25]: 35.2%; viability, T/C [26]: 2.03%; viability, T/C [27]: 36.9%; viability, T/C [28]: 33.8%; viability, T/C [29]: 29.1%; viability, T/C [30]: 4.17%
